Measurements as given in ChEMBL document CHEMBL3758129, “Design, synthesis and anti-HIV evaluation of novel diarylpyridine derivatives targeting the entrance channel of NNRTI binding pocket” (Eur J Med Chem, 2016).

How the values were obtained:
[1] = tested on: Human immunodeficiency virus 1; test: Antiviral activity against wild type HIV1 3B infected in human MT4 cells assessed as reduction of virus-induced cytopathic effect after 5 days by MTT assay; format: functional, organism-based; conditions: Human immunodeficiency virus 1, 3B, MT4, 120 h
[2] = tested on: Human immunodeficiency virus 2; test: Antiviral activity against wild type HIV2 ROD infected in human MT4 cells assessed as reduction of virus-induced cytopathic effect after 5 days by MTT assay; format: functional, organism-based; conditions: Human immunodeficiency virus 2, ISOLATE ROD, MT4, 120 h
[3] = Selectivity index, ratio of CC50 for human MT4 cells to EC50 for wild type HIV1 3B infected in human MT4 cells; format: toxicity, cell-based; conditions: read-out: Ratio CC50/EC50
[4] = Cytotoxicity against human MT4 cells assessed as reduction in viability of mock infected cells after 5 days MTT assay; format: cell-based
[5] = Selectivity index, ratio of CC50 for human MT4 cells to EC50 for wild type HIV2 ROD infected in human MT4 cells; format: toxicity, cell-based; conditions: read-out: Ratio CC50/EC50
[6] = tested on: Human immunodeficiency virus 1; test: Antiviral activity against HIV1 […] expressing reverse transcriptase F227L/V106A double mutant infected in human MT4 cells assessed as reduction of virus-induced cytopathic effect after 5 days by MTT assay; format: functional, organism-based; conditions: Human immunodeficiency virus 1, MT4, 120 h
[7] = tested on: Human immunodeficiency virus 1; test: Antiviral activity against HIV1 3B expressing reverse transcriptase Y188L mutant infected in human MT4 cells assessed as reduction of virus-induced cytopathic effect after 5 days by MTT assay; format: functional, organism-based; conditions: Human immunodeficiency virus 1, 3B, MT4, 120 h
[8] = tested on: Human immunodeficiency virus 1; test: Antiviral activity against HIV1 3B expressing reverse transcriptase Y181C mutant infected in human MT4 cells assessed as reduction of virus-induced cytopathic effect after 5 days by MTT assay; format: functional, organism-based; conditions: Human immunodeficiency virus 1, 3B, MT4, 120 h
[9] = tested on: Human immunodeficiency virus 1; test: Antiviral activity against HIV1 3B expressing reverse transcriptase E138K mutant infected in human MT4 cells assessed as reduction of virus-induced cytopathic effect after 5 days by MTT assay; format: functional, organism-based; conditions: Human immunodeficiency virus 1, 3B, MT4, 120 h
[10] = tested on: Human immunodeficiency virus 1; test: Antiviral activity against HIV1 3B expressing reverse transcriptase K103N mutant infected in human MT4 cells assessed as reduction of virus-induced cytopathic effect after 5 days by MTT assay; format: functional, organism-based; conditions: Human immunodeficiency virus 1, 3B, MT4, 120 h
[11] = tested on: Human immunodeficiency virus 1; test: Antiviral activity against HIV1 3B expressing reverse transcriptase L100I mutant infected in human MT4 cells assessed as reduction of virus-induced cytopathic effect after 5 days by MTT assay; format: functional, organism-based; conditions: Human immunodeficiency virus 1, 3B, MT4, 120 h
[12] = tested on: Human immunodeficiency virus 1; test: Antiviral activity against HIV1 RES056 infected in human MT4 cells assessed as reduction of virus-induced cytopathic effect after 5 days by MTT assay; format: functional, organism-based; conditions: Human immunodeficiency virus 1, RES056, MT4, 120 h
[13] = tested on: Human immunodeficiency virus 1; test: Potency index, ratio of efavirenz EC50 to compound EC50 for antiviral activity against HIV1 3B expressing reverse transcriptase K103N mutant infected in human MT4 cells; format: functional
[14] = tested on: Human immunodeficiency virus 1; test: Potency index, ratio of delavirdine EC50 to compound EC50 for antiviral activity against HIV1 3B expressing reverse transcriptase K103N mutant infected in human MT4 cells; format: functional
[15] = tested on: Human immunodeficiency virus 1; test: Potency index, ratio of nevirapine EC50 to compound EC50 for antiviral activity against HIV1 3B expressing reverse transcriptase K103N mutant infected in human MT4 cells; format: functional

| SMILES | EC50 [1] [nM] | EC50 [2] [nM] | selectivity ratio [3] | CC50 at 120 h [4] [nM] | selectivity ratio [5] | EC50 [6] [nM] | EC50 [7] [nM] | EC50 [8] [nM] | EC50 [9] [nM] | EC50 [10] [nM] | EC50 [11] [nM] | EC50 [12] [nM] | Ratio EC50 [13] | Ratio EC50 [14] | Ratio EC50 [15] |
| --- | --- | --- | --- | --- | --- | --- | --- | --- | --- | --- | --- | --- | --- | --- | --- |
| Cc1cc(C)c(Oc2cc(NCCC#N)nc(Nc3ccc(C#N)cc3)c2)c(C)c1 | 240 | > 2100 | 22 | 5300 | < 1 | – | – | – | – | – | – | – | – | – | – |
| Cc1cc(C#N)cc(C)c1Oc1cc(NCCC#N)nc(Nc2ccc(C#N)cc2)c1 | 100 | > 3210 | 75 | 7850 | < 1 | > 7850 | > 7850 | > 7850 | 940 | 180 | 1340 | 11100 | – | – | – |
| Cc1cc(C)c(Oc2cc(Cl)nc(Nc3ccc(C#N)cc3)c2)c(C)c1 | 370 | > 2030 | 15 | 5590 | < 1 | – | – | – | – | – | – | – | – | – | – |
| Cc1cc(C#N)cc(C)c1Oc1cc(Nc2ccc(C#N)cc2)nc(NC2CC2)c1 | 220 | > 4060 | 47 | 10300 | < 1 | – | – | – | – | – | – | – | – | – | – |
| Cc1cc(C)c(Oc2cc(NCC3CC3)nc(Nc3ccc(C#N)cc3)c2)c(C)c1 | 1990 | > 13100 | 17 | 32900 | < 1 | – | – | – | – | – | – | – | – | – | – |
| Cc1cc(C#N)cc(C)c1Oc1cc(NCCN2CCOCC2)nc(Nc2ccc(C#N)cc2)c1 | 82 | > 17400 | 451 | 37200 | < 1 | 6040 | 8100 | 7550 | 6410 | 49 | 8460 | 4720 | 3 | 50 | 140 |
| COCCNc1cc(Oc2c(C)cc(C)cc2C)cc(Nc2ccc(C#N)cc2)n1 | 870 | > 22900 | 65 | 56600 | < 1 | – | – | – | – | – | – | – | – | – | – |
| Cc1ccnc2c1NC(=O)c1cccnc1N2C1CC1 [NEVIRAPINE] | 260 | – | – | – | – | – | 9610 | – | – | – | 830 | – | – | – | – |
| Cc1cc(C#N)cc(C)c1Oc1cc(NCCN2CCNCC2)nc(Nc2ccc(C#N)cc2)c1 | 430 | > 2070 | 10 | 4430 | < 1 | – | – | – | – | – | – | – | – | – | – |
| Cc1cc(C)c(Oc2cc(NCC3CCCO3)nc(Nc3ccc(C#N)cc3)c2)c(C)c1 (stereo not drawn) | 1790 | > 125000 | > 163 | > 292000 | < 1 | – | – | – | – | – | – | – | – | – | – |
| Cc1cc(C)c(Oc2cc(Nc3ccc(C#N)cc3)nc(NC3CC3)c2)c(C)c1 | 35 | > 2580 | 190 | 6710 | < 1 | – | – | – | – | – | – | – | – | – | – |
| Cc1cc(C#N)cc(C)c1Oc1cc(Cl)nc(Nc2ccc(C#N)cc2)c1 | 840 | > 8550 | 27 | 22900 | < 1 | – | – | – | – | – | – | – | – | – | – |
| C=CCNc1cc(Oc2c(C)cc(C#N)cc2C)cc(Nc2ccc(C#N)cc2)n1 | 400 | > 8770 | 55 | 22200 | < 1 | – | – | – | – | – | – | – | – | – | – |
| COCCNc1cc(Oc2c(C)cc(C#N)cc2C)cc(Nc2ccc(C#N)cc2)n1 | 250 | > 40700 | ≥ 394 | ≥ 98500 | < 1 | – | – | – | – | – | – | – | – | – | – |
| O=C1Nc2ccc(Cl)cc2[C@@](C#CC2CC2)(C(F)(F)F)O1 [EFAVIRENZ] | – | – | – | – | – | 210 | 340 | 6.8 | – | – | 100 | – | – | – | – |
| Cc1cc(C)c(Oc2cc(NCCN(C)C)nc(Nc3ccc(C#N)cc3)c2)c(C)c1 | 43 | > 1940 | 109 | 4670 | < 1 | – | – | – | – | – | – | – | – | – | – |
| Cc1cc(C)c(Oc2cc(NCCN3CCOCC3)nc(Nc3ccc(C#N)cc3)c2)c(C)c1 | 72 | > 11100 | 339 | 24300 | < 1 | 4520 | 9450 | 4930 | 4590 | 140 | 5800 | 8310 | – | – | – |
| Cc1cc(C#N)cc(C)c1Oc1cc(NCC2CCCO2)nc(Nc2ccc(C#N)cc2)c1 (stereo not drawn) | 1320 | > 125000 | > 216 | > 285000 | < 1 | – | – | – | – | – | – | – | – | – | – |
| C=CCNc1cc(Oc2c(C)cc(C)cc2C)cc(Nc2ccc(C#N)cc2)n1 | 700 | > 9330 | 35 | 24300 | < 1 | – | – | – | – | – | – | – | – | – | – |
| Cc1cn([C@H]2C[C@H](N=[N+]=[N-])[C@@H](CO)O2)c(=O)[nH]c1=O [ZIDOVUDINE] | 6.7 | – | > 7.06 | – | > 1050 | 4.8 | 11 | 7.1 | 13 | 8.3 | 5.2 | – | – | – | – |
| Cc1cc(C)c(Oc2cc(NCCN3CCNCC3)nc(Nc3ccc(C#N)cc3)c2)c(C)c1 | 710 | > 1650 | 5 | 3610 | < 1 | – | – | – | – | – | – | – | – | – | – |
| Cc1cc(C#N)cc(C)c1Oc1cc(NCC2CC2)nc(Nc2ccc(C#N)cc2)c1 | 1520 | > 125000 | > 201 | > 305000 | < 1 | – | – | – | – | – | – | – | – | – | – |
| COC(CNc1cc(Oc2c(C)cc(C#N)cc2C)cc(Nc2ccc(C#N)cc2)n1)OC | 840 | > 125000 | > 335 | > 282000 | < 1 | – | – | – | – | – | – | – | – | – | – |
| COC(CNc1cc(Oc2c(C)cc(C)cc2C)cc(Nc2ccc(C#N)cc2)n1)OC | 1630 | > 14500 | 21 | 33500 | < 1 | – | – | – | – | – | – | – | – | – | – |
| Cc1cc(C#N)cc(C)c1Oc1nc(Nc2ccc(C#N)cc2)nc(N)c1Br [ETRAVIRINE] | 3.5 | – | – | – | – | – | 22 | – | – | 3.2 | 6.6 | – | – | – | – |
| CC(C)Nc1cccnc1N1CCN(C(=O)c2cc3cc(NS(C)(=O)=O)ccc3[nH]2)CC1 [DELAVIRDINE] | 33 | – | 30.4 | – | 733 | 1870 | 690 | 2030 | 43 | 2480 | 2100 | – | – | – | – |
